Measurements published in patent EP0774249A2, “Topical composition containing specific flavanones” (UNILEVER PLC, priority 1995, dated 1997).
Entries after “also recorded” stand apart in the source; their conditions may differ. Where two headings read alike, the source gives them in different places.

Tested on: Human Epidermal Keratinocytes
Test: Transglutaminase (TG-1) assay, ELISA on cultured keratinocytes
Type: cell-based
Settings: for Effects on Differentiation (TG-1): after 72 hour incubation; for morphology of the cells / cytotoxic effect on keratinocytes: observation of the cultures; for TG-1 Expressed Day 1 / TG-1 Expressed Day 2: concentrations not given; for TG-1 production DAY 2 / TG-1 production DAY 3 / TG-1 production DAY 1: absorbance OD 490nm; for TG-1 production DAY 2: control 0.134 (Exp. 1), 0.152 (Exp. 2), 0.174 (Exp. 3); for TG-1 production DAY 3: control 0.143 (Exp. 1), 0.200 (Exp. 2), 0.218 (Exp. 3); for TG-1 production DAY 1: control 0.154 (Exp. 1), 0.179 (Exp. 2), 0.181 (Exp. 3); for stimulation of differentiation (TG-1 production) against the control: 10, 25, 50 µg/mL, days 1 to 3 (Table 2); for activity at 10 µg/mL / activity at 25 µg/mL / activity at 50 µg/mL: Homo sapiens, Keratinocyte; for TG-1 expressed on Day 1: single flavanone
[1] = Experiment 1, control 0.17 ± 0.01
[2] = Experiment 1, control 0.21 ± 0.02
[3] = Experiment 2, control 0.16 ± 0.01
[4] = Experiment 2, control 0.20 ± 0.01
[5] = 24 h, 10 µg/mL, read-out: DAY 1 (% over control) (converted)
[6] = 24 h, 25 µg/mL, read-out: DAY 1 (% over control) (converted)
[7] = 24 h, 50 µg/mL, read-out: DAY 1 (% over control) (converted)
[8] = 48 h, 10 µg/mL, read-out: DAY 2 (% over control) (converted)
[9] = 48 h, 25 µg/mL, read-out: DAY 2 (% over control) (converted)
[10] = 48 h, 50 µg/mL, read-out: DAY 2 (% over control) (converted)
[11] = 72 h, 10 µg/mL, read-out: DAY 3 (% over control) (converted)
[12] = 72 h, 25 µg/mL, read-out: DAY 3 (% over control) (converted)
[13] = 72 h, 50 µg/mL, read-out: DAY 3 (% over control) (converted)
[14] = 5μg/mL, control 0.17 (Exp. 1), 0.19 (Exp. 3)
[15] = 10μg/mL, control 0.17 (Exp. 1), 0.19 (Exp. 3)

## O=c1cc(-c2ccc(O)cc2)oc2cc(O)cc(O)c12 [Apigenin, reference compound]
5 and 15 µg/ml
  Effects on Differentiation (TG-1): No effect
  morphology of the cells / cytotoxic effect on keratinocytes: disrupted the cell membranes

## CCCCCCCCCCCCC/C=C/C(O)C(CO)NC(C)=O (stereo not shown) [C2-Ceramide (Formula A)]
[1]
  TG-1 Expressed Day 1: 0.15 ± 0.01^1
[2]
  TG-1 Expressed Day 2: 0.23 ± 0.02^3

## CCCCCCCCCCCCCCCCN(CC(O)CO)C(C)=O (stereo not shown) [C2-Neoceramide (Formula F)]
[3]
  TG-1 Expressed Day 1: 0.16 ± 0.01
[4]
  TG-1 Expressed Day 2: 0.21 ± 0.02

## O=c1cc(-c2ccccc2)oc2cc(O)cc(O)c12 [Chrysin, reference compound]
5 and 15 µg/ml
  Effects on Differentiation (TG-1): No effect

## O=c1ccc2ccccc2o1 [Coumarin, reference compound]
5 and 15 µg/ml
  Effects on Differentiation (TG-1): No effect

## O=c1c(-c2ccc(O)cc2)coc2cc(O)ccc12 [Daidzein, reference compound]
5 and 15 µg/ml
  stimulation or inhibition of differentiation processes, time course study: no effects
  Effects on Differentiation (TG-1): No effect
  morphology of the cells / cytotoxic effect on keratinocytes: no morphological changes

## Oc1cc(O)c2c(c1)O[C@H](c1ccc(O)c(O)c1)[C@H](O)C2 [Epicatechin, reference compound]
5 and 15 µg/ml
  Effects on Differentiation (TG-1): No effect

## O=C1CC(c2ccc(O)c(O)c2)Oc2cc(O)cc(O)c21 (stereo not shown) [Eriodictyol]
10 µg/mL
  TG-1 production DAY 2: 0.194 ± 0.01
  TG-1 production DAY 3: 0.264 ± 0.03
  TG-1 production DAY 1: 0.178 ± 0.02
25 µg/mL
  TG-1 production DAY 2: 0.222 ± 0.05
  TG-1 production DAY 3: 0.314 ± 0.07
  TG-1 production DAY 1: 0.211 ± 0.04
50 µg/mL
  TG-1 production DAY 2: 0.174 ± 0.02
  TG-1 production DAY 3: 0.193 ± 0.05
  TG-1 production DAY 1: 0.186 ± 0.02
5 and 15 µg/ml
  Effects on Differentiation (TG-1): Increase TG-1
5 and 15 µg/ml, listed as eriodictyol
  Effects on Differentiation (TG-1): stimulated TG-1 production
  stimulation of differentiation (TG-1 production) against the control: stimulated differentiation to the same extent or higher than the control
[5]
  activity at 10 µg/mL: 99%
[6]
  activity at 25 µg/mL: 118%
[7]
  activity at 50 µg/mL: 104%
[8]
  activity at 10 µg/mL: 128%
[9]
  activity at 25 µg/mL: 146%
[10]
  activity at 50 µg/mL: 115%
[11]
  activity at 10 µg/mL: 132%
[12]
  activity at 25 µg/mL: 157%
[13]
  activity at 50 µg/mL: 97%

## O=c1c(O)c(-c2ccc(O)c(O)c2)oc2cc(O)ccc12 [Fisetin, reference compound]
5 and 15 µg/ml
  Effects on Differentiation (TG-1): No effect

## COc1ccc(-c2coc3cc(O)ccc3c2=O)cc1 [Formonoetin, reference compound]
5 and 15 µg/ml
  Effects on Differentiation (TG-1): No effect

## COc1ccc(C2CC(=O)c3c(O)cc(O)cc3O2)cc1O (stereo not shown) [Hesperetin]
[14]
  TG-1 expressed on Day 1: 0.19 ± 0.01 ^1
[15]
  TG-1 expressed on Day 1: 0.19 ± 0.02 ^1
10 µg/mL
  TG-1 production DAY 2: 0.155 ± 0.01
  TG-1 production DAY 3: 0.190 ± 0.01
  TG-1 production DAY 1: 0.142 ± 0.01
20μg/mL, control 0.19 (Exp. 2)
  TG-1 expressed on Day 1: 0.20 ± 0.02
25 µg/mL
  TG-1 production DAY 2: 0.167 ± 0.02
  TG-1 production DAY 3: 0.182 ± 0.01
  TG-1 production DAY 1: 0.148 ± 0.02
40μg/mL, control 0.19 (Exp. 2)
  TG-1 expressed on Day 1: 0.20 ± 0.01
50 µg/mL
  TG-1 production DAY 2: 0.213 ± 0.04
  TG-1 production DAY 3: 0.196 ± 0.01
  TG-1 production DAY 1: 0.154 ± 0.04
5 and 15 µg/ml
  Effects on Differentiation (TG-1): Increase TG-1
5 and 15 µg/ml, listed as hesperetin
  Effects on Differentiation (TG-1): effective keratinocyte pro-differentiating agents; also recorded: stimulated TG-1 production
  stimulation of differentiation (TG-1 production) against the control: stimulated differentiation to the same extent or higher than the control
[1]
  TG-1 Expressed Day 1: 0.14 ± 0.01^1
[2]
  TG-1 Expressed Day 2: 0.22 ± 0.02
[3]
  TG-1 Expressed Day 1: 0.15 ± 0.01^2
[4]
  TG-1 Expressed Day 2: 0.21 ± 0.02
[5]
  activity at 10 µg/mL: 92%
[6]
  activity at 25 µg/mL: 96%
[7]
  activity at 50 µg/mL: 100%
[8]
  activity at 10 µg/mL: 116%
[9]
  activity at 25 µg/mL: 125%
[10]
  activity at 50 µg/mL: 159%
[11]
  activity at 10 µg/mL: 133%
[12]
  activity at 25 µg/mL: 127%
[13]
  activity at 50 µg/mL: 137%

## COc1ccc([C@@H]2CC(=O)c3c(O)cc(O[C@@H]4O[C@H](CO[C@@H]5O[C@@H](C)[C@H](O)[C@@H](O)[C@H]5O)[C@@H](O)[C@H](O)[C@H]4O)cc3O2)cc1O [Hesperidin, reference compound]
5 and 15 µg/ml
  Effects on Differentiation (TG-1): No effect

## O=C1C[C@@H](c2ccc(O)cc2)Oc2cc(O)cc(O)c21 [Naringenin]
[14]
  TG-1 expressed on Day 1: 0.19 ± 0.02
[15]
  TG-1 expressed on Day 1: 0.21 ± 0.01 ^5
10 µg/mL
  TG-1 production DAY 2: 0.149 ± 0.01
  TG-1 production DAY 3: 0.159 ± 0.01
  TG-1 production DAY 1: 0.147 ± 0.01
25 µg/mL
  TG-1 production DAY 2: 0.200 ± 0.03
  TG-1 production DAY 3: 0.171 ± 0.02
  TG-1 production DAY 1: 0.207 ± 0.02
50 µg/mL
  TG-1 production DAY 2: 0.186 ± 0.01
  TG-1 production DAY 3: 0.169 ± 0.01
  TG-1 production DAY 1: 0.156 ± 0.01
5 and 15 µg/ml
  Effects on Differentiation (TG-1): Increase TG-1
5 and 15 µg/ml, listed as naringenin
  Effects on Differentiation (TG-1): effective keratinocyte pro-differentiating agents; also recorded: stimulated TG-1 production
  stimulation of differentiation (TG-1 production) against the control: stimulated differentiation to the same extent or higher than the control
[5]
  activity at 10 µg/mL: 99%
[6]
  activity at 25 µg/mL: 134%
[7]
  activity at 50 µg/mL: 101%
[8]
  activity at 10 µg/mL: 111%
[9]
  activity at 25 µg/mL: 149%
[10]
  activity at 50 µg/mL: 139%
[11]
  activity at 10 µg/mL: 111%
[12]
  activity at 25 µg/mL: 120%
[13]
  activity at 50 µg/mL: 118%

## CC1OC(OC2C(Oc3cc(O)c4c(c3)OC(c3ccc(O)cc3)CC4=O)OC(CO)C(O)C2O)C(O)C(O)C1O (stereo not shown) [Naringin, reference compound]
5 and 15 µg/ml
  Effects on Differentiation (TG-1): No effect
5 and 15 µg/ml, listed as naringin
  Effects on Differentiation (TG-1): not an effective material for promoting the differentiation of keratinocytes

## O=c1c(O)c(-c2ccc(O)c(O)c2)oc2cc(O)cc(O)c12 [Quercetin, reference compound]
5 and 15 µg/ml
  Effects on Differentiation (TG-1): No effect

## O=C1c2c(O)cc(O)cc2O[C@H](c2ccc(O)c(O)c2)[C@H]1O [Taxifolin]
10 µg/mL
  TG-1 production DAY 2: 0.204 ± 0.04
  TG-1 production DAY 3: 0.231 ± 0.03
  TG-1 production DAY 1: 0.153 ± 0.02
25 µg/mL
  TG-1 production DAY 2: 0.212 ± 0.03
  TG-1 production DAY 3: 0.226 ± 0.02
  TG-1 production DAY 1: 0.175 ± 0.04
50 µg/mL
  TG-1 production DAY 2: 0.159 ± 0.01
  TG-1 production DAY 3: 0.199 ± 0.04
  TG-1 production DAY 1: 0.150 ± 0.02
5 and 15 µg/ml
  Effects on Differentiation (TG-1): Increase TG-1
5 and 15 µg/ml, listed as taxifolin
  Effects on Differentiation (TG-1): stimulated TG-1 production
  stimulation of differentiation (TG-1 production) against the control: stimulated differentiation to the same extent or higher than the control
[5]
  activity at 10 µg/mL: 85%
[6]
  activity at 25 µg/mL: 97%
[7]
  activity at 50 µg/mL: 84%
[8]
  activity at 10 µg/mL: 117%
[9]
  activity at 25 µg/mL: 122%
[10]
  activity at 50 µg/mL: 92%
[11]
  activity at 10 µg/mL: 106%
[12]
  activity at 25 µg/mL: 104%
[13]
  activity at 50 µg/mL: 92%
